Our source for the T/C values is PubChem BioAssay AID256 (DTP/NCI, 2004).

The assay deals with CD2F1 mice, L1210 leukemia ip, survival T/C. The assay is described as follows: NCI In Vivo Anticancer Drug Screen. Data for tumor model L1210 Leukemia (intraperitoneal) in CD2F1 (CDF1) mice. The conditions noted are these: higher = longer survival. In short, it runs like this:
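Transplantable tumor in mice; compound-treated vs vehicle-treated groups. Read-out = treated/control ratio of the measured endpoint.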

The mark [1] stands for this setting: endpoint: mean survival time, dose: 100.0 mg/kg/injection, schedule: Q04DX003 (ip), vehicle: saline with Tween-80.
Setting [2] is: endpoint: mean survival time, dose: 200.0 mg/kg/injection, schedule: Q04DX003 (ip), vehicle: saline with Tween-80.

“And” between values parts separate entries of the source, which are not always exact repeats. Identical values can stand only once. Toxic doses and inconclusive results are not listed.

For the compound `COc1cc(NCc2ccc3nc(N)nc(N)c3c2C)cc(OC)c1OC`, the T/C is 102 % of control (endpoint: mean survival time, dose: 0.62 mg/kg/injection, schedule: Q01DX009 (ip), vehicle: sodium bicarbonate); 102 % of control and 106 % of control (endpoint: mean survival time, dose: 1.25 mg/kg/injection, schedule: Q01DX009 (ip), vehicle: sodium bicarbonate); 106 % of control (endpoint: mean survival time, dose: 1.87 mg/kg/injection, schedule: Q04DX003 (ip), vehicle: sodium bicarbonate); 110 % of control and 112 % of control (endpoint: mean survival time, dose: 2.5 mg/kg/injection, schedule: Q01DX009 (ip), vehicle: sodium bicarbonate); 118 % of control (endpoint: mean survival time, dose: 3.11 mg/kg/injection, schedule: Q01DX009 (ip), vehicle: other); 96 % of control (endpoint: mean survival time, dose: 3.75 mg/kg/injection, schedule: Q04DX003 (ip), vehicle: sodium bicarbonate). Also, the T/C is, setting by setting: (endpoint: mean survival time, dose: 5.0 mg/kg/injection, schedule: Q01DX009 (ip), vehicle: sodium bicarbonate) 121 % of control and 110 % of control; (endpoint: mean survival time, dose: 5.18 mg/kg/injection, schedule: Q01DX009 (ip), vehicle: other) 121 % of control; (endpoint: mean survival time, dose: 5.27 mg/kg/injection, schedule: Q01DX009 (ip), vehicle: Klucel (hydroxypropylcellulose) (HPC)) 122 % of control; (endpoint: mean survival time, dose: 7.05 mg/kg/injection, schedule: Q01DX009 (ip), vehicle: water) 117 % of control; (endpoint: mean survival time, dose: 7.5 mg/kg/injection, schedule: Q04DX003 (ip), vehicle: sodium bicarbonate) 110 % of control; (endpoint: mean survival time, dose: 10.5 mg/kg/injection, schedule: Q01DX009 (ip), vehicle: water) 123 % of control. In addition, the T/C by setting is: (endpoint: mean survival time, dose: 15.0 mg/kg/injection, schedule: Q04DX003 (ip), vehicle: sodium bicarbonate) 112 % of control; (endpoint: mean survival time, dose: 17.8 mg/kg/injection, schedule: Q01DX009 (ip), vehicle: Klucel (hydroxypropylcellulose) (HPC)) 174 % of control; (endpoint: mean survival time, dose: 20.0 mg/kg/injection, schedule: Q01DX009 (ip), vehicle: sodium bicarbonate) 156 % of control and 160 % of control; (endpoint: mean survival time, dose: 24.0 mg/kg/injection, schedule: Q01DX009 (ip), vehicle: other) 152 % of control; (endpoint: mean survival time, dose: 26.7 mg/kg/injection, schedule: Q01DX009 (ip), vehicle: Klucel (hydroxypropylcellulose) (HPC)) 191 % of control; (endpoint: mean survival time, dose: 30.0 mg/kg/injection, schedule: Q04DX003 (ip), vehicle: sodium bicarbonate) 114 % of control. The T/C was 216 % of control (endpoint: mean survival time, dose: 40.0 mg/kg/injection, schedule: Q01DX009 (ip), vehicle: Klucel (hydroxypropylcellulose) (HPC)); 167 % of control (endpoint: mean survival time, dose: 40.0 mg/kg/injection, schedule: Q01DX009 (ip), vehicle: other); 110 % of control (endpoint: mean survival time, dose: 40.0 mg/kg/injection, schedule: Q01DX009 (ip), vehicle: sodium bicarbonate); 122 % of control (endpoint: mean survival time, dose: 60.0 mg/kg/injection, schedule: Q01DX009 (ip), vehicle: Klucel (hydroxypropylcellulose) (HPC)); 151 % of control (endpoint: mean survival time, dose: 80.0 mg/kg/injection, schedule: Q01DX009 (ip), vehicle: water); 116 % of control (endpoint: mean survival time, dose: 90.0 mg/kg/injection, schedule: Q01DX009 (ip), vehicle: Klucel (hydroxypropylcellulose) (HPC)). Also, the T/C (endpoint: median survival time, dose: 2.5 mg/kg/injection, schedule: Q01DX009 (ip), vehicle: sodium bicarbonate) was 109 % of control; the T/C (endpoint: median survival time, dose: 5.0 mg/kg/injection, schedule: Q01DX009 (ip), vehicle: Klucel (hydroxypropylcellulose) (HPC)) is 119 % of control; the T/C (endpoint: median survival time, dose: 5.0 mg/kg/injection, schedule: Q01DX009 (ip), vehicle: sodium bicarbonate) was 117 % of control and 124 % of control; the T/C (endpoint: median survival time, dose: 6.25 mg/kg/injection, schedule: Q01DX009 (ip), vehicle: water) was 124 % of control; the T/C (endpoint: median survival time, dose: 7.5 mg/kg/injection, schedule: Q01DX005 (ip), vehicle: Klucel (hydroxypropylcellulose) (HPC)) is 150 % of control; the T/C (endpoint: median survival time, dose: 10.0 mg/kg/injection, schedule: Q01DX009 (ip), vehicle: Klucel (hydroxypropylcellulose) (HPC)) was 151 % of control. The T/C is 167 % of control (endpoint: median survival time, dose: 15.0 mg/kg/injection, schedule: Q01DX005 (ip), vehicle: Klucel (hydroxypropylcellulose) (HPC)); 153 % of control (endpoint: median survival time, dose: 18.0 mg/kg/injection, schedule: Q01DX009 (ip), vehicle: distilled water + Tween-80); 172 % of control (endpoint: median survival time, dose: 20.0 mg/kg/injection, schedule: Q01DX009 (ip), vehicle: Klucel (hydroxypropylcellulose) (HPC)); 152 % of control and 157 % of control (endpoint: median survival time, dose: 20.0 mg/kg/injection, schedule: Q01DX009 (ip), vehicle: sodium bicarbonate); 157 % of control (endpoint: median survival time, dose: 25.0 mg/kg/injection, schedule: Q01DX009 (ip), vehicle: water); 165 % of control (endpoint: median survival time, dose: 27.0 mg/kg/injection, schedule: Q01DX009 (ip), vehicle: distilled water + Tween-80). The T/C (endpoint: median survival time, dose: 30.0 mg/kg/injection, schedule: Q01DX005 (ip), vehicle: Klucel (hydroxypropylcellulose) (HPC)) is 166 % of control and 175 % of control; the T/C (endpoint: median survival time, dose: 40.0 mg/kg/injection, schedule: Q01DX009 (ip), vehicle: distilled water + Tween-80) was 158 % of control and 168 % of control; the T/C (endpoint: median survival time, dose: 40.0 mg/kg/injection, schedule: Q01DX009 (ip), vehicle: sodium bicarbonate) is 168 % of control and 181 % of control; the T/C (endpoint: median survival time, dose: 44.0 mg/kg/injection, schedule: Q01DX009 (ip), vehicle: water) is 154 % of control; the T/C (endpoint: median survival time, dose: 50.0 mg/kg/injection, schedule: Q01DX009 (ip), vehicle: water) was 157 % of control and 165 % of control; the T/C (endpoint: median survival time, dose: 60.0 mg/kg/injection, schedule: Q01DX005 (ip), vehicle: Klucel (hydroxypropylcellulose) (HPC)) was 184 % of control and 185 % of control. Besides, the T/C by setting is: (endpoint: median survival time, dose: 60.0 mg/kg/injection, schedule: Q01DX009 (ip), vehicle: distilled water + Tween-80) 160 % of control and 182 % of control; (endpoint: median survival time, dose: 80.0 mg/kg/injection, schedule: Q01DX009 (ip), vehicle: Klucel (hydroxypropylcellulose) (HPC)) 112 % of control; (endpoint: median survival time, dose: 90.0 mg/kg/injection, schedule: Q01DX009 (ip), vehicle: distilled water + Tween-80) 118 % of control; (endpoint: median survival time, dose: 100.0 mg/kg/injection, schedule: Q01DX009 (ip), vehicle: water) 173 % of control and 184 % of control; (endpoint: median survival time, dose: 120.0 mg/kg/injection, schedule: Q01DX005 (ip), vehicle: Klucel (hydroxypropylcellulose) (HPC)) 236 % of control.

For `CCOC1=C(C)C(=O)C1C` (stereo not given), the T/C by setting is: (endpoint: mean survival time, dose: 100.0 mg/kg/injection, schedule: Q04DX003 (ip), vehicle: saline) 100 % of control; (endpoint: mean survival time, dose: 200.0 mg/kg/injection, schedule: Q04DX003 (ip), vehicle: saline) 94 % of control; (endpoint: mean survival time, dose: 400.0 mg/kg/injection, schedule: Q04DX003 (ip), vehicle: saline) 100 % of control.

On to `C1CCC2NN=NC2C1` (stereo not given), for which the T/C is, setting by setting: (endpoint: mean survival time, dose: 100.0 mg/kg/injection, schedule: Q01DX001 (ip), vehicle: saline with Tween-80) 104 % of control; (endpoint: mean survival time, dose: 200.0 mg/kg/injection, schedule: Q01DX001 (ip), vehicle: saline with Tween-80) 98 % of control.

As for `COC(=N)Cc1ccc(OC)c(OC)c1`, the T/C under setting [1] was 102 % of control; the T/C under setting [2] is 96 % of control; the T/C (endpoint: mean survival time, dose: 400.0 mg/kg/injection, schedule: Q04DX003 (ip), vehicle: saline with Tween-80) is 94 % of control.

Turning to `CCOC(=O)C1C(=O)N(C)C(=O)N1Cc1ccccc1` (stereo not given), the T/C runs as follows: (endpoint: mean survival time, dose: 12.5 mg/kg/injection, schedule: Q01DX009 (ip), vehicle: other) 93 % of control; (endpoint: mean survival time, dose: 25.0 mg/kg/injection, schedule: Q01DX009 (ip), vehicle: other) 89 % of control; (endpoint: mean survival time, dose: 50.0 mg/kg/injection, schedule: Q01DX009 (ip), vehicle: other) 101 % of control; (endpoint: mean survival time, dose: 100.0 mg/kg/injection, schedule: Q01DX009 (ip), vehicle: other) 101 % of control; (endpoint: mean survival time, dose: 200.0 mg/kg/injection, schedule: Q01DX009 (ip), vehicle: other) 101 % of control.

On to `CC(C)c1cccc(O)c(=O)c1`, for which the T/C runs as follows: (endpoint: mean survival time, dose: 50.0 mg/kg/injection, schedule: Q01DX009 (ip), vehicle: saline with Tween-80) 102 % of control; (endpoint: mean survival time, dose: 100.0 mg/kg/injection, schedule: Q01DX009 (ip), vehicle: saline with Tween-80) 100 % of control.

Regarding `ClC1=CCCCC1`, the T/C (endpoint: mean survival time, dose: 100.0 mg/kg/injection, schedule: Q04DX003 (ip), vehicle: acetone) is 102 % of control.

`Cc1cc(C)c(F)[c]([Hg][Br])c1N`: the T/C is 102 % of control (endpoint: mean survival time, dose: 3.13 mg/kg/injection, schedule: Q01DX009 (ip), vehicle: Klucel (hydroxypropylcellulose) (HPC)); 113 % of control (endpoint: mean survival time, dose: 6.25 mg/kg/injection, schedule: Q01DX009 (ip), vehicle: Klucel (hydroxypropylcellulose) (HPC)); 105 % of control (endpoint: mean survival time, dose: 12.5 mg/kg/injection, schedule: Q01DX009 (ip), vehicle: Klucel (hydroxypropylcellulose) (HPC)).

Consider `NC(=O)c1ncc[nH]c1=O`, for which the T/C runs as follows: under setting [1], 103 % of control; under setting [2], 91 % of control.

As to `Cc1ncc(CO)c(C2NOCc3ccc(Cl)cc32)c1O` (stereo not given), the T/C by setting is: (endpoint: mean survival time, dose: 25.0 mg/kg/injection, schedule: Q01DX009 (ip), vehicle: Klucel (hydroxypropylcellulose) (HPC)) 96 % of control; (endpoint: mean survival time, dose: 50.0 mg/kg/injection, schedule: Q01DX009 (ip), vehicle: Klucel (hydroxypropylcellulose) (HPC)) 98 % of control.
